Patent publication US20220289794A1, “SYNTHETIC ANTIMICROBIAL PEPTIDES” (priority 2019, published 2022)
Converted amounts (≈) assume the structure as drawn. Non-standard residues stand in square brackets, D forms with d. Residues, ends and D or L forms follow the SMILES beside them. dDip = N[C@@H](C(=O)O)C(c1ccccc1)c1ccccc1; Dip = N[C@H](C(=O)O)C(c1ccccc1)c1ccccc1; 2Nal = N[C@@H](Cc1ccc2ccccc2c1)C(=O)O; d2Nal = N[C@H](Cc1ccc2ccccc2c1)C(=O)O

What was measured:
[1] = tested on: Pseudomonas aeruginosa (ATCC 27883); details: ATCC 27883
[2] = tested on: Methicillin-resistant Staphylococcus aureus MRSA (ATCC BAA-1556); details: ATCC BAA-1556
[3] = tested on: Escherichia coli (ATCC 25922); details: ATCC 25922
in vitro = details: human, fresh human red blood cells (washed), pH 7.4

| MIC P. aeruginosa ATCC 27883 [1] [µg/mL] | MIC MRSA ATCC BAA-1556 [2] [µg/mL] | MIC E. coli ATCC 25922 [3] [µg/mL] | HC50 at 0.5 h (in vitro) [µg/mL] | SMILES |
| --- | --- | --- | --- | --- |
| 32 (≈ 26.5 µM) | 6.2 (≈ 5.14 µM) | 32 (≈ 26.5 µM) | 425 | N=C(N)NCCC[C@@H]1NC(=O)[C@H](CCCNC(=N)N)NC(=O)[C@@H](CCCNC(=N)N)NC(=O)[C@@H](CCCNC(=N)N)NC(=O)[C@H](Cc2ccc3ccccc3c2)NC(=O)[C@H](Cc2ccc3ccccc3c2)NC(=O)[C@@H](Cc2c[nH]c3ccccc23)NC1=O [IFX-121, c[arg-arg-Arg-Arg-trp-NaI-NaI]] (cyclo([dR][dR]RR[dW][2Nal][2Nal])) |
| 32 (≈ 26.5 µM) | – | 32 (≈ 26.5 µM) | 195 | N=C(N)NCCC[C@@H]1NC(=O)[C@H](Cc2ccc3ccccc3c2)NC(=O)[C@H](Cc2ccc3ccccc3c2)NC(=O)[C@@H](Cc2c[nH]c3ccccc23)NC(=O)[C@@H](CCCNC(=N)N)NC(=O)[C@@H](CCCNC(=N)N)NC(=O)[C@H](CCCNC(=N)N)NC1=O [IFX-120, c[Arg-Arg-arg-arg-trp-NaI-NaI]] (cyclo(RR[dR][dR][dW][2Nal][2Nal])) |
| 32 (≈ 26.5 µM) | – | 32 (≈ 26.5 µM) | 190 | N=C(N)NCCC[C@@H]1NC(=O)[C@H](CCCNC(=N)N)NC(=O)[C@@H](CCCNC(=N)N)NC(=O)[C@@H](CCCNC(=N)N)NC(=O)[C@@H](Cc2ccc3ccccc3c2)NC(=O)[C@@H](Cc2ccc3ccccc3c2)NC(=O)[C@H](Cc2c[nH]c3ccccc23)NC1=O [IFX-117, c[arg-arg-Arg-Arg-Trp-naI-naI]] (cyclo([dR][dR]RRW[d2Nal][d2Nal])) |
| 16 (≈ 13.3 µM) | 3.1 (≈ 2.57 µM) | 16 (≈ 13.3 µM) | 210 | N=C(N)NCCC[C@@H]1NC(=O)[C@H](CCCNC(=N)N)NC(=O)[C@@H](Cc2ccc3ccccc3c2)NC(=O)[C@@H](Cc2ccc3ccccc3c2)NC(=O)[C@@H](Cc2c[nH]c3ccccc23)NC(=O)[C@@H](CCCNC(=N)N)NC(=O)[C@@H](CCCNC(=N)N)NC1=O [IFX-118, c[Arg-Arg-arg-arg-trp-naI-naI]] (cyclo(RR[dR][dR][dW][d2Nal][d2Nal])) |
| 32 (≈ 26.5 µM) | 3.1 (≈ 2.57 µM) | 16 (≈ 13.3 µM) | 285 | N=C(N)NCCC[C@H]1NC(=O)[C@@H](CCCNC(=N)N)NC(=O)[C@@H](CCCNC(=N)N)NC(=O)[C@@H](Cc2ccc3ccccc3c2)NC(=O)[C@@H](Cc2c[nH]c3ccccc23)NC(=O)[C@@H](Cc2ccc3ccccc3c2)NC(=O)[C@@H](CCCNC(=N)N)NC1=O [IFX-142, c[arg-arg-arg-arg-naI-trp-naI]] (cyclo([dR][dR][dR][dR][d2Nal][dW][d2Nal])) |
| 32 (≈ 26.5 µM) | – | 16 (≈ 13.3 µM) | 200 | N=C(N)NCCC[C@@H]1NC(=O)[C@H](CCCNC(=N)N)NC(=O)[C@@H](CCCNC(=N)N)NC(=O)[C@@H](CCCNC(=N)N)NC(=O)[C@@H](Cc2ccc3ccccc3c2)NC(=O)[C@@H](Cc2ccc3ccccc3c2)NC(=O)[C@@H](Cc2c[nH]c3ccccc23)NC1=O [IFX-119, c[arg-arg-Arg-Arg-trp-naI-naI]] (cyclo([dR][dR]RR[dW][d2Nal][d2Nal])) |

Second part, the molecule before the results:

| SMILES | MIC P. aeruginosa ATCC 27883 [1] [µg/mL] | MIC MRSA ATCC BAA-1556 [2] [µg/mL] | MIC E. coli ATCC 25922 [3] [µg/mL] | HC50 at 0.5 h (in vitro) [µg/mL] |
| --- | --- | --- | --- | --- |
| N=C(N)NCCC[C@@H]1NC(=O)[C@H](CCCNC(=N)N)NC(=O)[C@H](CCCNC(=N)N)NC(=O)[C@@H](Cc2ccc3ccccc3c2)NC(=O)[C@@H](Cc2ccc3ccccc3c2)NC(=O)[C@@H](Cc2ccc3ccccc3c2)NC(=O)[C@H](CCCNC(=N)N)NC1=O [IFX-086, c[Arg-Arg-Arg-Arg-naI-naI-naI]] (cyclo(RRRR[d2Nal][d2Nal][d2Nal])) | 12.5 (≈ 10.3 µM) | – | – | 155 |
| N=C(N)NCCC[C@H]1NC(=O)[C@H](Cc2ccc3ccccc3c2)NC(=O)[C@H](Cc2ccc3ccccc3c2)NC(=O)[C@H](Cc2ccc3ccccc3c2)NC(=O)[C@@H](CCCNC(=N)N)NC(=O)[C@@H](CCCNC(=N)N)NC(=O)[C@@H](CCCNC(=N)N)NC1=O [IFX-087, c[arg-arg-arg-arg-NaI-NaI-NaI]] (cyclo([dR][dR][dR][dR][2Nal][2Nal][2Nal])) | 12.5 (≈ 10.3 µM) | – | – | 145 |
| N=C(N)NCCC[C@@H]1NC(=O)[C@H](Cc2ccc3ccccc3c2)NC(=O)[C@@H](Cc2ccc3ccccc3c2)NC(=O)[C@H](Cc2ccc3ccccc3c2)NC(=O)[C@@H](CCCNC(=N)N)NC(=O)[C@H](CCCNC(=N)N)NC(=O)[C@@H](CCCNC(=N)N)NC1=O [IFX-085, c[Arg-arg-Arg-arg-NaI-naI-NaI]] (cyclo(R[dR]R[dR][2Nal][d2Nal][2Nal])) | 12.5 (≈ 10.3 µM) | – | – | 145 |
| N=C(N)NCCC[C@H]1NC(=O)[C@H](C(c2ccccc2)c2ccccc2)NC(=O)[C@H](C(c2ccccc2)c2ccccc2)NC(=O)[C@H](C(c2ccccc2)c2ccccc2)NC(=O)[C@@H](CCCNC(=N)N)NC(=O)[C@@H](CCCNC(=N)N)NC(=O)[C@@H](CCCNC(=N)N)NC1=O [IFX-073, c[arg-arg-arg-arg-Dip-Dip-Dip]] (cyclo([dR][dR][dR][dR][Dip][Dip][Dip])) | 6.2 (≈ 4.79 µM) | – | – | 245 |
| N=C(N)NCCC[C@@H]1NC(=O)[C@H](CCCNC(=N)N)NC(=O)[C@H](CCCNC(=N)N)NC(=O)[C@H](Cc2ccc3ccccc3c2)NC(=O)[C@@H](Cc2ccc3ccccc3c2)NC(=O)[C@H](Cc2ccc3ccccc3c2)NC(=O)[C@H](CCCNC(=N)N)NC1=O [IFX-075, c[Arg-Arg-Arg-Arg-NaI-naI-NaI]] (cyclo(RRRR[2Nal][d2Nal][2Nal])) | 12.5 (≈ 10.3 µM) | – | – | 100 |
| N=C(N)NCCC[C@@H]1NC(=O)[C@H](CCCNC(=N)N)NC(=O)[C@@H](Cc2ccc3ccccc3c2)NC(=O)[C@@H](Cc2ccc3ccccc3c2)NC(=O)[C@H](Cc2c[nH]c3ccccc23)NC(=O)[C@@H](CCCNC(=N)N)NC(=O)[C@@H](CCCNC(=N)N)NC1=O [IFX-116, c[Arg-Arg-arg-arg-Trp-naI-naI]] (cyclo(RR[dR][dR]W[d2Nal][d2Nal])) | 32 (≈ 26.5 µM) | – | 32 (≈ 26.5 µM) | 480 |
| N=C(N)NCCC[C@H]1NC(=O)[C@@H](CCCNC(=N)N)NC(=O)[C@@H](CCCNC(=N)N)NC(=O)[C@@H](Cc2ccc3ccccc3c2)NC(=O)[C@@H](Cc2ccc3ccccc3c2)NC(=O)[C@@H](Cc2ccc3ccccc3c2)NC(=O)[C@@H](CCCNC(=N)N)NC1=O [IFX-081, c[arg-arg-arg-arg-naI-naI-naI]] (cyclo([dR][dR][dR][dR][d2Nal][d2Nal][d2Nal])) | 50 (≈ 41.1 µM) | – | – | 200 |
| N=C(N)NCCC[C@@H]1NC(=O)[C@@H](CCCNC(=N)N)NC(=O)[C@H](CCCNC(=N)N)NC(=O)[C@@H](CCCNC(=N)N)NC(=O)[C@@H](Cc2ccc3ccccc3c2)NC(=O)[C@H](Cc2ccc3ccccc3c2)NC(=O)[C@@H](Cc2ccc3ccccc3c2)NC1=O [IFX-083, c[arg-Arg-arg-Arg-naI-NaI-naI]] (cyclo([dR]R[dR]R[d2Nal][2Nal][d2Nal])) | 12.5 (≈ 10.3 µM) | – | – | 170 |
| N=C(N)NCCC[C@@H]1NC(=O)[C@H](CCCNC(=N)N)NC(=O)[C@H](CCCNC(=N)N)NC(=O)[C@H](CCCNC(=N)N)NC(=O)[C@@H](Cc2ccc3ccccc3c2)NC(=O)[C@H](Cc2ccc3ccccc3c2)NC(=O)[C@H](Cc2ccc3ccccc3c2)NC1=O [IFX-074, c[Arg-Arg-Arg-Arg-NaI-NaI-naI]] (cyclo(RRRR[2Nal][2Nal][d2Nal])) | 12.5 (≈ 10.3 µM) | – | – | 200 |
| N=C(N)NCCC[C@@H]1NC(=O)[C@@H](CCCNC(=N)N)NC(=O)[C@H](CCCNC(=N)N)NC(=O)[C@@H](CCCNC(=N)N)NC(=O)[C@@H](Cc2ccc3ccccc3c2)NC(=O)[C@@H](Cc2ccc3ccccc3c2)NC(=O)[C@@H](Cc2ccc3ccccc3c2)NC1=O [IFX-082, c[arg-Arg-arg-Arg-naI-naI-naI]] (cyclo([dR]R[dR]R[d2Nal][d2Nal][d2Nal])) | 12.5 (≈ 10.3 µM) | – | – | 150 |
| N=C(N)NCCC[C@@H]1NC(=O)[C@@H](CCCNC(=N)N)NC(=O)[C@H](CCCNC(=N)N)NC(=O)[C@@H](CCCNC(=N)N)NC(=O)[C@@H](C(c2ccccc2)c2ccccc2)NC(=O)[C@@H](C(c2ccccc2)c2ccccc2)NC(=O)[C@@H](C(c2ccccc2)c2ccccc2)NC1=O [IFX-068, c[arg-Arg-arg-Arg-dip-dip-dip]] (cyclo([dR]R[dR]R[dDip][dDip][dDip])) | 12.5 (≈ 9.66 µM) | – | – | 280 |
| N=C(N)NCCC[C@@H]1NC(=O)[C@H](CCCNC(=N)N)NC(=O)[C@H](CCCNC(=N)N)NC(=O)[C@@H](C(c2ccccc2)c2ccccc2)NC(=O)[C@@H](C(c2ccccc2)c2ccccc2)NC(=O)[C@@H](C(c2ccccc2)c2ccccc2)NC(=O)[C@H](CCCNC(=N)N)NC1=O [IFX-072, c[Arg-Arg-Arg-Arg-dip-dip-dip]] (cyclo(RRRR[dDip][dDip][dDip])) | 12.5 (≈ 9.66 µM) | – | – | 265 |
| N=C(N)NCCC[C@@H]1NC(=O)[C@H](C(c2ccccc2)c2ccccc2)NC(=O)[C@@H](C(c2ccccc2)c2ccccc2)NC(=O)[C@H](C(c2ccccc2)c2ccccc2)NC(=O)[C@@H](CCCNC(=N)N)NC(=O)[C@H](CCCNC(=N)N)NC(=O)[C@@H](CCCNC(=N)N)NC1=O [IFX-071, c[Arg-arg-Arg-arg-Dip-dip-Dip]] (cyclo(R[dR]R[dR][Dip][dDip][Dip])) | 12.5 (≈ 9.66 µM) | – | – | 150 |
| N=C(N)NCCC[C@@H]1NC(=O)[C@H](CCCNC(=N)N)NC(=O)[C@H](Cc2ccc3ccccc3c2)NC(=O)[C@H](Cc2ccc3ccccc3c2)NC(=O)[C@@H](Cc2ccc3ccccc3c2)NC(=O)[C@H](CCCNC(=N)N)NC(=O)[C@H](CCCNC(=N)N)NC1=O [IFX-076, c[Arg-Arg-Arg-Arg-naI-NaI-NaI]] (cyclo(RRRR[d2Nal][2Nal][2Nal])) | 12.5 (≈ 10.3 µM) | – | – | 100 |
